These results are taken from paper PMC10955584, “New Benzimidazole-Triazole Derivatives as Topoisomerase I Inhibitors: Design, Synthesis, Anticancer Screening, and Molecular Modeling Studies” (ACS Omega, 2024).

Where two headings read alike, the source gives them in different places.

In one data set the target is T1, DNA topoisomerase I (Homo sapiens, UniProt P11387).
T1 construct: purchased TopoGen TG1018–2
T1 sequence (P11387 1-765): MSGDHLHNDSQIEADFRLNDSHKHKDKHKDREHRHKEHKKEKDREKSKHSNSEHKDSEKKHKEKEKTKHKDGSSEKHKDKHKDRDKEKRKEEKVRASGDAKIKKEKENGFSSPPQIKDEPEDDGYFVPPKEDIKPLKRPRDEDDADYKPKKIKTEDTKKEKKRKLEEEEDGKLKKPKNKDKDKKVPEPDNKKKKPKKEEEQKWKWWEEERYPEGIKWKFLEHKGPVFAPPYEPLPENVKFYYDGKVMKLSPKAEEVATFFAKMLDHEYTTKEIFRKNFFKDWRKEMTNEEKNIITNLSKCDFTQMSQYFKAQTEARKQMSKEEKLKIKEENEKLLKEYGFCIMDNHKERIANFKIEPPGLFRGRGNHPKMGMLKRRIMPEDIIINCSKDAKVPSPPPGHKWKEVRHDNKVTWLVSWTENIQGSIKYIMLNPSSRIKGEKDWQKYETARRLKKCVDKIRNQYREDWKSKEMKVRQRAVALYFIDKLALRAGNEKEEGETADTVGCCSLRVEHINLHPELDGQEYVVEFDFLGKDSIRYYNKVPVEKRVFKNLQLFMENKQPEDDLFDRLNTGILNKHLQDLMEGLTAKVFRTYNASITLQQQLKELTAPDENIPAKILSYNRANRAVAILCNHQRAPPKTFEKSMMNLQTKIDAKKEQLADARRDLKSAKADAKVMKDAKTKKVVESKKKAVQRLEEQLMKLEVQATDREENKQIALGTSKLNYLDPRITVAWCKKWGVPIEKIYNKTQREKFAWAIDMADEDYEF
Kind of data set: DNA topoisomerase I assay (TopoGen kit, relaxation of supercoiled plasmid DNA, agarose gel). The data set is classed as biochemical. The following applies: supercoiled plasmid DNA pHOT 1, 30 min at 37 °C. The procedure: Topogen’s Topoisomerase I Drug Screening Kit was used to investigate the topoisomerase I effects of the compounds. With this kit, it is determined whether the compounds that inhibit Topo I activity act as catalytic inhibitors or topoisomerase poisons. Topoisomerase I inhibition activities of compounds 4b, 4h, Hoechst 33342, and camptothecin were evaluated in vitro and the analysis of the reaction products was visualized by the electrophoresis method. Supercoiled plasmid DNA (pHOT 1) was used as the control group. As another control group, plasmid DNA and topoisomerase I were used to ensure that the DNA became relaxed. Hoechst 33342, known as a topoisomerase poison, and camptothecin were used as positive controls.
Using agarose gel electrophoresis, the topoisomerase I inhibitory activities of the final compounds were assessed by measuring the relaxation of supercoiled plasmid DNA. A positive control, camptothecin, was used. A final volume of 20 μL reaction volume was used for the experiment, which contained 2 μL of 10× TGS buffer, […], 2 μL of supercoiled plasmid DNA, 2 μL of the test compound, 2 μL of Topo I, 2 μl of 10% SDS, 2 μL of proteinase K, and 2 μL of the DNA loading dye. Following a 30 min incubation period at 37 °C, the reaction mixtures were electrophoresed using 1× TAE buffer for 75 min at a potential of 50 V on a 1% agarose gel.[25]

Data set [1] has as its system NIH3T3 (mouse embryo fibroblast cell line). Put plainly: MTT cell viability assay, NIH3T3 healthy cells. Type of data set: cell-based.
Data set [2] concerns A549 (lung carcinoma cell line). Put plainly: MTT cell viability assay, A549. The data set is classed as cell-based. The following applies: Homo sapiens. The procedure: (§1) The anticancer activity of compounds 4a–l were screened according to the MTT assays. The MTT assays were performed as previously described.[3] Anticancer activity of final compounds was assessed against […] A549 (lung carcinoma cell line) and C6 (rat glioma cell line) cell lines.
(In general: Formazan colour is commonly taken as a measure of viable cells.)

For data set [3], the system named is C6 (rat glioma cell line). Put plainly: MTT cell viability assay, C6. Type of data set: cell-based. As to the method:
as §1

The test system of a further data set is Topo II. On the set-up: method as in PMID 35870412. The following applies: read-out: IC50 Topo II enzyme inhibition; cited from earlier work.

Regarding `CCOc1ccc(-c2nc3ccc(-c4nc5cc(N6CCN(C)CC6)ccc5[nH]4)cc3[nH]2)cc1` [Hoechst 33342, reference compound], at DNA topoisomerase I, the “Topoisomerase I inhibitory effect (gel electrophoresis)” value (“Topoisomerase I inhibitory effect” for short) was “strong inhibitory effect as a topoisomerase poison”. Further, the results for the concentration for half-maximal inhibition (IC50) in data set [1], in data set [2] and in data set [3] were 13 ± 0.598 µM, 0.422 ± 0.02 µM and 1.05 ± 0.3 µM, respectively.
In data set [1] (NIH3T3, heading: IC50 NIH3T3), `COc1cccc2c1C(=O)c1c(O)c3c(c(O)c1C2=O)C[C@@](O)(C(=O)CO)C[C@@H]3O[C@H]1C[C@H](N)[C@H](O)[C@H](C)O1` [doxorubicin, reference compound] came in with a 50% inhibitory concentration (IC50) of 1.06 ± 0.00917 µM.
Regarding `CN[C@@H]1C[C@H]2O[C@@](C)([C@@H]1OC)n1c3ccccc3c3c4c(c5c6ccccc6n2c5c31)C(=O)NC4` [staurosporine], in the data set on Topo II, the half-inhibitory concentration (IC50) was 4.64 µM.
`CCOc1ccc(-c2nc3ccc(-c4nnc(SCC(=O)N5CCN(c6ccccc6)CC5)n4CC)cc3[nH]2)cc1` [4j, 2-((4-Ethyl-5-(2-(4-ethoxyphenyl)-1H-benzo[d]imidazol-6-yl)-4H-1,2,4-triazol-3-yl)thio)-1-(4-phenylpiperazin-1-yl)ethanone] displayed a melting point of 118.8 °C. The IC50 in data set [1] came out at 69.5 ± 2.85 µM. In addition, the 50% inhibitory concentration (IC50) in data set [2] came out at 54.1 ± 2.18 µM. For the same compound, in data set [3], the 50% inhibitory concentration (IC50) is > 100 µM.
The like results for `CCOc1ccc(-c2nc3ccc(-c4nnc(SCC(=O)N5CCN(CC)CC5)n4CC)cc3[nH]2)cc1` [4i, 2-((4-Ethyl-5-(2-(4-ethoxyphenyl)-1H-benzo[d]imidazol-6-yl)-4H-1,2,4-triazol-3-yl)thio)-1-(4-ethylpiperazin-1-yl)ethanone] were, in that order, 144.3 °C, 30.6 ± 1.08 µM, 33 ± 1.42 µM and 39.4 ± 2.58 µM.
The like results for `CCn1c(SCC(=O)N2CCN(c3ncccn3)CC2)nnc1-c1ccc2nc(-c3ccc(O)cc3)[nH]c2c1` [4d, 2-((4-Ethyl-5-(2-(4-hydroxyphenyl)-1H-benzo[d]imidazol-6-yl)-4H-1,2,4-triazol-3-yl)thio)-1-(4-(2-pyrimidinyl)piperazin-1-yl)ethanone] were, in that order, 144 °C, 80.5 ± 2.76 µM, 54.4 ± 1.84 µM and > 100 µM.
`CCn1c(SCC(=O)N2CCN(c3ccccn3)CC2)nnc1-c1ccc2nc(-c3ccc(O)cc3)[nH]c2c1` [4c, 2-((4-Ethyl-5-(2-(4-hydroxyphenyl)-1H-benzo[d]imidazol-6-yl)-4H-1,2,4-triazol-3-yl)thio)-1-(4-(2-pyridinyl)piperazin-1-yl)ethanone]: the melting point came to 312.4 °C. The compound further displayed a 50% inhibitory concentration (IC50) in data set [1] of 32.2 ± 0.74 µM. Further, the IC50 in data set [2] is 15.8 ± 0.63 µM. Besides, in data set [3], the IC50 was determined as 24 ± 2.4 µM.
The like results for `CCOc1ccc(-c2nc3ccc(-c4nnc(SCC(=O)N5CCN(c6ncccn6)CC5)n4CC)cc3[nH]2)cc1` [4l, 2-((4-Ethyl-5-(2-(4-ethoxyphenyl)-1H-benzo[d]imidazol-6-yl)-4H-1,2,4-triazol-3-yl)thio)-1-(4-(2-pyrimidinyl)piperazin-1-yl)ethanone] were, in that order, 140.8 °C, 35.7 ± 1.11 µM, 12.4 ± 0.54 µM and 38.8 ± 1.82 µM.
`CC[C@@]1(O)C(=O)OCc2c1cc1n(c2=O)Cc2cc3ccccc3nc2-1` [camptothecin, reference compound]: the “Topoisomerase I inhibitory effect” value at DNA topoisomerase I is reported as “strong inhibitory effect as a topoisomerase poison”.
The compound `CCn1c(SCC(=O)N2CCN(c3ccccc3)CC2)nnc1-c1ccc2nc(-c3ccc(OC)cc3)[nH]c2c1` [4f, 2-((4-Ethyl-5-(2-(4-methoxyphenyl)-1H-benzo[d]imidazol-6-yl)-4H-1,2,4-triazol-3-yl)thio)-1-(4-phenylpiperazin-1-yl)ethanone] gave a melting point of 153.8 °C. Also, the IC50 in data set [1] was determined as 92.8 ± 3.06 µM. This compound also had an IC50 in data set [2] of 69.4 ± 3.04 µM. Further, the IC50 in data set [3] is > 100 µM.
Taken in the same sequence, the figures for `CCn1c(SCC(=O)N2CCN(c3ccccn3)CC2)nnc1-c1ccc2nc(-c3ccc(OC)cc3)[nH]c2c1` [4g, 2-((4-Ethyl-5-(2-(4-methoxyphenyl)-1H-benzo[d]imidazol-6-yl)-4H-1,2,4-triazol-3-yl)thio)-1-(4-(2-pyridinyl)piperazin-1-yl)ethanone] were 204.3 °C, 85.9 ± 2.92 µM, 87.2 ± 3.97 µM and > 100 µM.
In turn, `CCn1c(SCC(=O)N2CCN(c3ccccc3)CC2)nnc1-c1ccc2nc(-c3ccc(O)cc3)[nH]c2c1` [4b, 2-((4-Ethyl-5-(2-(4-hydroxyphenyl)-1H-benzo[d]imidazol-6-yl)-4H-1,2,4-triazol-3-yl)thio)-1-(4-phenylpiperazin-1-yl)ethanone] gave a melting point of 319 °C. The “Topoisomerase I inhibitory effect” value on DNA topoisomerase I is recorded as “significant inhibitory activity”. In data set [1], this compound registered a concentration for half-maximal inhibition (IC50) of 56.7 ± 1.18 µM. The compound further showed a concentration for half-maximal inhibition (IC50) in data set [2] of 7.34 ± 0.21 µM. The IC50 in data set [3] stood at 42.1 ± 2.1 µM.
`CCOc1ccc(-c2nc3ccc(-c4nnc(SCC(=O)N5CCN(c6ccccn6)CC5)n4CC)cc3[nH]2)cc1` [4k, 2-((4-Ethyl-5-(2-(4-ethoxyphenyl)-1H-benzo[d]imidazol-6-yl)-4H-1,2,4-triazol-3-yl)thio)-1-(4-(2-pyridinyl)piperazin-1-yl)ethanone] showed a melting point of 162.2 °C. In data set [1], this compound returned an IC50 of 46.4 ± 1.21 µM. Further, in data set [2], the IC50 was 24.9 ± 1.21 µM. This compound also gave a half-inhibitory concentration (IC50) in data set [3] of 64.6 ± 2.66 µM.
On to `CCn1c(SCC(=O)N2CCN(c3ncccn3)CC2)nnc1-c1ccc2nc(-c3ccc(OC)cc3)[nH]c2c1` [4h, 2-((4-Ethyl-5-(2-(4-methoxyphenyl)-1H-benzo[d]imidazol-6-yl)-4H-1,2,4-triazol-3-yl)thio)-1-(4-(2-pyrimidinyl)piperazin-1-yl)ethanone], for which the melting point is 190.5 °C. Moreover, the “Topoisomerase I inhibitory effect” value at DNA topoisomerase I is given as “significant inhibitory activity”. In data set [1], this compound showed an IC50 of 74.4 ± 2.68 µM. In data set [2], this compound returned a half-inhibitory concentration (IC50) of 4.56 ± 0.18 µM. Besides, in data set [3], 13.2 ± 0.46 µM corresponded to half-maximal inhibition (IC50).
Compound `CCN1CCN(C(=O)CSc2nnc(-c3ccc4nc(-c5ccc(OC)cc5)[nH]c4c3)n2CC)CC1` [4e, 2-((4-Ethyl-5-(2-(4-methoxyphenyl)-1H-benzo[d]imidazol-6-yl)-4H-1,2,4-triazol-3-yl)thio)-1-(4-ethylpiperazin-1-yl)ethanone] came in with a melting point of 112.7 °C. The compound further gave a concentration for half-maximal inhibition (IC50) in data set [1] of 77.7 ± 2.47 µM. Further, the half-maximal inhibitory concentration (IC50) in data set [2] is 75.7 ± 2.55 µM. For the same compound, the half-inhibitory concentration (IC50) in data set [3] is > 100 µM.
The like results for `CCN1CCN(C(=O)CSc2nnc(-c3ccc4nc(-c5ccc(O)cc5)[nH]c4c3)n2CC)CC1` [4a, 2-((4-Ethyl-5-(2-(4-hydroxyphenyl)-1H-benzo[d]imidazol-6-yl)-4H-1,2,4-triazol-3-yl)thio)-1-(4-ethylpiperazin-1-yl)ethanone] were, in that order, 223.5 °C, 64.8 ± 1.96 µM, 21.8 ± 1.04 µM and > 100 µM.

As usually defined, the IC50 is the concentration needed to halve the response being measured. As a reminder, the melting point is the temperature of the solid-liquid transition.
